According to patent US12180207B2 (ARRAY BIOPHARMA INC., priority 2018, dated 2024):

molecular target: HEK-293 cells transfected with dox-inducible human wild type FGFR2 (Homo sapiens (Human), UniProt P21802); assay: FGFR2 pFGFR cell assay (ELISA); assay type: cell-based; settings: HEK-293 dox-inducible FGFR2, 1 hour compound, 30 ng/ml FGF-acidic
Experimental: FGFR2 pFGFR Cell Assay: • HEK-293 cells transfected with dox-inducible human wild type FGFR2 (SEQ ID NO: 3) were plated in a collagen or poly-D-lysine coated 96 well flat bottom plates at 4×10^5 cells/well in complete DMEM medium containing 10% FBS and 1 μg/ml doxycycline and allowed to attach for 24 h at 37° C., 5% CO2. Cells were treated with compound using 1:3 serial dilutions with a maximum final concentration of 5 μM. Compound was incubated on cells for 1 hour at 37° C., 5% CO2. Cells were then stimulated with a final concentration of 30 ng/ml human FGF-acidic (R&D Systems Cat number 232-FA/CF) for 5 minutes at 37° C., 5% CO2. Medium was removed and cells were lysed with lysis buffer containing phosphatase and protease inhibitors. Phospho FGFR2 was measured by ELISA (R&D Systems cat. no. DYC684). The ELISA captures total FGFR2 and detects total phospho tyrosine. Optical density was measured for each well using a Versamax reader at a wavelength of 450 nm. 100 POC was determined using no test compounds and 0 POC was determined using a control compound. The POC values were fit to a 4-parameter logistic curve as a function of the concentration of the compound, and the IC50 value is the point where the curve crosses 50 POC.

Sequence of HEK-293 cells transfected with dox-inducible human wild type FGFR2 (P21802 22-821): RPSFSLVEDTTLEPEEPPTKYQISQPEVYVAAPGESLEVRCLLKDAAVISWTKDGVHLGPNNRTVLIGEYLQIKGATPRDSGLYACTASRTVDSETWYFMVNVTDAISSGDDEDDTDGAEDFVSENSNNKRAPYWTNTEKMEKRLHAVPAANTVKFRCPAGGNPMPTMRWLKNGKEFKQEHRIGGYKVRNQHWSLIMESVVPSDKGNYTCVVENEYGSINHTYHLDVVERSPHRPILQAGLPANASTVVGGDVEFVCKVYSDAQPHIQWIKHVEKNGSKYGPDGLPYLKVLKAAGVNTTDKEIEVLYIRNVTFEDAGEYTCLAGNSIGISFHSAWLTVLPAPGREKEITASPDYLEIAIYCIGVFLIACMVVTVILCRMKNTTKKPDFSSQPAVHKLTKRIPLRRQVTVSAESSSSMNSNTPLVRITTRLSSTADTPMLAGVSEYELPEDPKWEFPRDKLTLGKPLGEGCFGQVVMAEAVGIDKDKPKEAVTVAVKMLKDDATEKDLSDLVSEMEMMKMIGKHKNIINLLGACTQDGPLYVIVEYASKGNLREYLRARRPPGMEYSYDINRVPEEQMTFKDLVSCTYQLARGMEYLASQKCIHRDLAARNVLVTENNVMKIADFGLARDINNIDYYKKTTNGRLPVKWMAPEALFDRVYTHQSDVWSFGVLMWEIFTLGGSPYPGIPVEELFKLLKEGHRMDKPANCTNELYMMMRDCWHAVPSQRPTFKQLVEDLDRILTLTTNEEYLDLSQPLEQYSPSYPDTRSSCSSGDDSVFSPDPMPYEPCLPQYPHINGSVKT

IC50 [nM] | SMILES
37 | C=CC(=O)Nc1ccc(CN2CCC(n3cc(-c4cc(OC)c5c(C#N)cnn5c4)cn3)CC2)cc1 [Example 9, N-(4-((4-(4-(3-cyano-4-methoxypyrazolo[1,5-a]pyridin-6-yl)-1H-pyrazol-1-yl)piperidin-1-yl)methyl)phenyl)acrylamide]
36 | C=CC(=O)N(C)c1ccc(CN2CCC(n3cc(-c4cc(OC)c5c(C#N)cnn5c4)cn3)CC2)cc1 [Example 10, N-(4-((4-(4-(3-cyano-4-methoxypyrazolo[1,5-a]pyridin-6-yl)-1H-pyrazol-1-yl)piperidin-1-yl)methyl)phenyl)-N-methylacrylamide]
14 | C=CC(=O)N1CCC(n2cc(-c3cc(OC)c4c(C#N)cnn4c3)cn2)CC1 [Example 11, 6-(1-(1-acryloylpiperidin-4-yl)-1H-pyrazol-4-yl)-4-methoxypyrazolo[1,5-a]pyridine-3-carbonitrile]
129 | C=CC(=O)N1CC(C(=O)N2CCC3(CC2)CN(c2ccc(-c4cc(OC)c5c(C#N)cnn5c4)cn2)C3)C1 [Example 102, 6-(6-(7-(1-acryloylazetidine-3-carbonyl)-2,7-diazaspiro[3.5]nonan-2-yl)pyridin-3-yl)-4-methoxypyrazolo[1,5-a]pyridine-3-carbonitrile]
1200 | C=CC(=O)N1CC(C(=O)N2C[C@@H]3C[C@H]2CN3c2ccc(-c3cc(OC)c4c(C#N)cnn4c3)cn2)C1 [Example 106, 6-(6-((1S,4S)-5-(1-acryloylazetidine-3-carbonyl)-2,5-diazabicyclo[2.2.1]heptan-2-yl)pyridin-3-yl)-4-methoxypyrazolo[1,5-a]pyridine-3-carbonitrile]
236 | C=CC(=O)N1CC(CN2C[C@H]3C[C@@H]2CN3c2ccc(-c3cc(OC)c4c(C#N)cnn4c3)cn2)C1 [Example 108, 6-(6-((1R,4R)-5-((1-acryloylazetidin-3-yl)methyl)-2,5-diazabicyclo[2.2.1]heptan-2-yl)pyridin-3-yl)-4-methoxypyrazolo[1,5-a]pyridine-3-carbonitrile]
348 | C=CC(=O)N1CC(C(=O)N2CCN(c3ccc(-c4cc(OC)c5c(C#N)cnn5c4)cn3)CC2)C1 [Example 111, 6-(6-(4-(1-acryloylazetidine-3-carbonyl)piperazin-1-yl)pyridin-3-yl)-4-methoxypyrazolo[1,5-a]pyridine-3-carbonitrile]
283 | C=CC(=O)N1CC(OC)(C(=O)N2CCC(n3ncc(-c4cc(OC)c5c(Cl)cnn5c4)c3C)CC2)C1 [Example 117, 1-(3-(4-(4-(3-chloro-4-methoxypyrazolo[1,5-a]pyridin-6-yl)-5-methyl-1H-pyrazol-1-yl)piperidine-1-carbonyl)-3-methoxyazetidin-1-yl)prop-2-en-1-one]
267 | C=CC(=O)N1CC(CN2CCC(n3ncc(-c4cc(OC)c5c(Cl)cnn5c4)c3C)CC2)C1 [Example 118, 1-(3-((4-(4-(3-chloro-4-methoxypyrazolo[1,5-a]pyridin-6-yl)-5-methyl-1H-pyrazol-1-yl)piperidin-1-yl)methyl)azetidin-1-yl)prop-2-en-1-one]
322 | C=CC(=O)N1CC(CN2CCC(n3ncc(-c4cc(OC)c5c(Cl)cnn5c4)c3C)CC2)(OC)C1 [Example 119, 1-(3-((4-(4-(3-chloro-4-methoxypyrazolo[1,5-a]pyridin-6-yl)-5-methyl-1H-pyrazol-1-yl)piperidin-1-yl)methyl)-3-methoxyazetidin-1-yl)prop-2-en-1-one]
83 | C=CC(=O)N1CCN(C(=O)N2CCC(n3cc(-c4cc(OC)c5c(C#N)cnn5c4)cn3)CC2)C[C@@H]1CC#N [Example 135, (S)-6-(1-(1-(4-acryloyl-3-(cyanomethyl)piperazine-1-carbonyl)piperidin-4-yl)-1H-pyrazol-4-yl)-4-methoxypyrazolo[1,5-a]pyridine-3-carbonitrile]
188 | COc1cc(-c2cnn(C3CCN(C(=O)C4(F)CN(C(=O)/C=C/CN(C)C)C4)CC3)c2C)cn2ncc(C#N)c12 [Example 153, (E)-6-(1-(1-(1-(4-(dimethylamino)but-2-enoyl)-3-fluoroazetidine-3-carbonyl)piperidin-4-yl)-5-methyl-1H-pyrazol-4-yl)-4-methoxypyrazolo [1,5-a]pyridine-3-carbonitrile]
327 | COC/C=C/C(=O)N1CC(F)(C(=O)N2CCC(n3ncc(-c4cc(OC)c5c(C#N)cnn5c4)c3C)CC2)C1 [Example 154, (E)-6-(1-(1-(3-fluoro-1-(4-methoxybut-2-enoyl)azetidine-3-carbonyl)piperidin-4-yl)-5-methyl-1H-pyrazol-4-yl)-4-methoxypyrazolo [1,5-a]pyridine-3-carbonitrile]
244 | CC#CC(=O)N1CC(F)(C(=O)N2CCC(n3ncc(-c4cc(OC)c5c(C#N)cnn5c4)c3C)CC2)C1 [Example 156, 6-(1-(1-(1-(but-2-ynoyl)-3-fluoroazetidine-3-carbonyl)piperidin-4-yl)-5-methyl-1H-pyrazol-4-yl)-4-methoxypyrazolo [1,5-a]pyridine-3-carbonitrile]
1550 | COc1cc(-c2cnn(C3CCN(C(=O)C4(OC)CN(C(=O)/C=C/CN(C)C)C4)CC3)c2C)cn2ncc(C#N)c12 [Example 158, (E)-6-(1-(1-(1-(4-(dimethylamino)but-2-enoyl)-3-methoxyazetidine-3-carbonyl)piperidin-4-yl)-5-methyl-1H-pyrazol-4-yl)-4-methoxypyrazolo [1,5-a]pyridine-3-carbonitrile]
451 | COc1cc(-c2cnn(C3CCN(CC4(OC)CN(C(=O)/C=C/CN(C)C)C4)CC3)c2C)cn2ncc(C#N)c12 [Example 159, (E)-6-(1-(1-((1-(4-(dimethylamino)but-2-enoyl)-3-methoxyazetidin-3-yl)methyl)piperidin-4-yl)-5-methyl-1H-pyrazol-4-yl)-4-methoxypyrazolo [1,5-a]pyridine-3-carbonitrile]
537 | COc1cc(-c2c(C)nn(C3CCN(C(=O)C4(F)CN(C(=O)/C=C/CN(C)C)C4)CC3)c2C)cn2ncc(C#N)c12 [Example 161, (E)-6-(1-(1-(1-(4-(dimethylamino)but-2-enoyl)-3-fluoroazetidine-3-carbonyl)piperidin-4-yl)-3,5-dimethyl-1H-pyrazol-4-yl)-4-methoxypyrazolo [1,5-a]pyridine-3-carbonitrile]
1180 | COc1cc(-c2nnn(C3CCN(C(=O)C4(F)CN(C(=O)/C=C/CN(C)C)C4)CC3)c2C)cn2ncc(C#N)c12 [Example 164, (E)-6-(1-(1-(1-(4-(dimethylamino)but-2-enoyl)-3-fluoroazetidine-3-carbonyl)piperidin-4-yl)-5-methyl-1H-1,2,3-triazol-4-yl)-4-methoxypyrazolo [1,5-a]pyridine-3-carbonitrile]
171 | COc1cc(-c2cnn(C3CCN(C(=O)C4(F)CN(C(=O)/C=C/CN(C)C)C4)CC3)c2C)cn2ncc(Cl)c12 [Example 170, (E)-1-(3-(4-(4-(3-chloro-4-methoxypyrazolo [1,5-a]pyridin-6-yl)-5-methyl-1H-pyrazol-1-yl)piperidine-1-carbonyl)-3-fluoroazetidin-1-yl)-4-(dimethylamino)but-2-en-1-one]
263 | COc1cc(-c2cnn(C3CCN(C(=O)C4(OC)CN(C(=O)/C=C/CN(C)C)C4)CC3)c2C)cn2ncc(Cl)c12 [Example 171, (E)-1-(3-(4-(4-(3-chloro-4-methoxypyrazolo [1,5-a]pyridin-6-yl)-5-methyl-1H-pyrazol-1-yl)piperidine-1-carbonyl)-3-methoxyazetidin-1-yl)-4-(dimethylamino)but-2-en-1-one]
1680 | COc1cc(-c2cnn(C3CCN(C(=O)C4CN(C(=O)C#CCO)C4)CC3)c2)cn2ncc(C#N)c12 [Example 179, 6-(1-(1-(1-(4-hydroxybut-2-ynoyl)azetidine-3-carbonyl)piperidin-4-yl)-1H-pyrazol-4-yl)-4-methoxypyrazolo[1,5-a]pyridine-3-carbonitrile]
292 | COc1cc(-c2cnn(C3CCN(C(=O)C4CN(C(=O)/C=C/CCl)C4)CC3)c2)cn2ncc(C#N)c12 [Example 181, (E)-6-(1-(1-(1-(4-chlorobut-2-enoyl)azetidine-3-carbonyl)piperidin-4-yl)-1H-pyrazol-4-yl)-4-methoxypyrazolo[1,5-a]pyridine-3-carbonitrile]
42 | C=CS(=O)(=O)N1CCC(C(=O)N2CCC(n3cc(-c4cc(OC)c5c(C#N)cnn5c4)cn3)CC2)CC1 [Example 186, 4-methoxy-6-(1-(1-(1-(vinylsulfonyl)piperi-dine-4-carbonyl)piperidin-4-yl)-1H-pyrazol-4-yl)pyrazolo[1,5-a]pyridine-3-carbonitrile]
